These results are taken from publication PMC11035424 (2024).

Assay [1] concerns c-myc (DNA, G4) TGAGGGTGGGTAGGGTGGGTAA
Description: absorption titration (383 nm, Stootman fit). The following applies: K+ (50 mM potassium phosphate); 50 mM KH2PO4-K2HPO4 pH 7.0; 8 µM compound.

Assay [2] shares this test system. The experiment in a line: pulldown on streptavidin magnetic beads, gel electrophoresis. The following applies: K+ (50 mM potassium phosphate); 5 µM compound, 5 µM DNA, pH 7.0, room temperature.
The test system of assay [3] is dsoligo (12-ss(-)/12-ss(+)) (DNA, duplex) GCGAAACCTCCC/GGGAGGTTTCGC
Described as above. The following applies: K+ (50 mM potassium phosphate); 5 µM compound, 5 µM DNA, pH 7.0, room temperature.

Assay [4] has as its system c-kit (DNA, G4) AGGGAGGGCGCTGGGAGGAGGG
The experiment in a line: ITC. The settings on record: K+ (50 mM potassium phosphate); 50 mM KH2PO4-K2HPO4 pH 7.0, 25 °C.

In assay [5] the test system is VEGF (DNA, G4) CGGGGCGGGCCTTGGGCGGGGT
The experiment in a line: CD melting at 265 nm. The settings on record: K+ (50 mM potassium phosphate); 50 mM potassium phosphate pH 7.0; 1.5 µM DNA, 3.0 µM compound; printed ≧.

Assay [6] relates to c-myc120 (DNA, G4) GAGGTATTTCGGGAGGTTTCGCCCCACGCCCTCTGCTTTGGGAACCCGGGAGGGGCGCTTATGGTGAGGGTGGGGAGGGTGGGGAAGGGGGAGGAGAGCGGTATTCGTGGTGTTCGGAGT
The experiment in a line: pulldown on streptavidin magnetic beads, qPCR. The settings on record: K+ (50 mM potassium phosphate); 50 mM potassium phosphate pH 7.0, room temperature; immobilised compound; more than 50% recovery.

In assay [7] the test system is c-myc (DNA, G4) TGAGGGTGGGTAGGGTGGGTAA
Description: ITC. The following applies: K+ (50 mM potassium phosphate); 50 mM KH2PO4-K2HPO4 pH 7.0, 25 °C; abstract misprints exponent as 10^-6.

For assay [8], the system named is TA-core (DNA, G4) TAGGGTTAGGGTTAGGGTTAGGG
Description: CD melting at 265 nm. The settings on record: K+ (50 mM potassium phosphate); 50 mM potassium phosphate pH 7.0; 1.5 µM DNA, 3.0 µM compound.

For assay [9], the system named is c-myc (DNA, G4) TGAGGGTGGGTAGGGTGGGTAA
The experiment in a line: CD melting at 265 nm. The settings on record: K+ (50 mM potassium phosphate); 50 mM potassium phosphate pH 7.0; 1.5 µM DNA, 3.0 µM compound; printed ≧; printed Tms differ by 6.6.

The subject of assay [10] is VEGF (DNA, G4) CGGGGCGGGCCTTGGGCGGGGT
The experiment in a line: ITC. The settings on record: K+ (50 mM potassium phosphate); 50 mM KH2PO4-K2HPO4 pH 7.0, 25 °C.

For assay [11], the system named is dsoligo (12-ss(-)/12-ss(+)) (DNA, duplex) GCGAAACCTCCC/GGGAGGTTTCGC
The experiment in a line: UV melting at 260 nm. The following applies: K+ (50 mM potassium phosphate); 50 mM potassium phosphate pH 7.0; 1.5 µM DNA, 3.0 µM compound.

The subject of assay [12] is c-myc-mut95 (DNA, single strand) GAGGTATTTCGGGAGGTTTCGCCACCTTCTTCACTCTCTTCACTCTCTTCATAAGCGCCCCTCCCGGGTTCCCCGGTATTCGTGGTGTTCGGAGT
Description: pulldown on streptavidin magnetic beads, qPCR. The settings on record: K+ (50 mM potassium phosphate); 50 mM potassium phosphate pH 7.0, room temperature; immobilised compound; 2 fmol DNA.

Assay [13] has as its system TA-core (DNA, G4) TAGGGTTAGGGTTAGGGTTAGGG
Description: ITC. The settings on record: K+ (50 mM potassium phosphate); 50 mM KH2PO4-K2HPO4 pH 7.0, 25 °C.

Take `CN1CCCNC(=O)CC[C@H](NC(=O)CCOCCOCCOCCOCCNC(=O)CCCC[C@@H]2SC[C@@H]3NC(=O)N[C@@H]32)C(=O)NCCCN(C)CCCN2C(=O)c3ccc4c5c(ccc(c35)C2=O)C(=O)N(CCC1)C4=O`: the K amounted to 8.9e+06 M⁻¹ in [1]; 200000 M⁻¹ in [4]; 3.9e+06 M⁻¹ in assay [7]; 820000 M⁻¹ in assay [10]; 2.1e+06 M⁻¹ in [13]. Also, the binding result in assay [2] is “yes”; in assay [3], “no”; in assay [6], “yes”; in [12], “no”. Besides, the ΔTm in assay [5] is over 7.0 °C; in [8], 4.8 °C; in assay [9], over 5.4 °C; in assay [11], 0.1 °C.
